Test results as given in patent US10947254B2, “Methods for treating ulcerative colitis using 3-((1R,3s,5S)-3-((7-((5-methyl-1H-pyrazol-3-yl)amino)-1,6-naphthyridin-5-yl)amino)-8-azabicyclo[3.2.1]octan-8-yl)propanenitrile” (priority 2015, dated 2021).

Tests used:
[1] = system: IL-13 induced STAT6 phosphorylation in BEAS-2B human lung epithelial cells; details: BEAS-2B cells
[2] = system: IL-4 induced STAT6 phosphorylation in THP-1 human monocytic cells; details: THP-1 cells

Row | SMILES | BEAS2B pIC50 [1] | THP-1 IL4 pIC50 [2]
1 | CCC1(S(=O)(=O)N2[C@@H]3CCC[C@H]2C[C@H](Nc2nc(Nc4cc(C)[nH]n4)cc4ncccc24)C3)CC1 [Example 4-20] | A (A represents a pEC50 value ≥7.5 (EC50≤32 nM)) | A (A represents a pEC50 value ≥7.5 (EC50≤32 nM))
2 | Cc1cc(Nc2cc3ncccc3c(N[C@@H]3C[C@H]4CCC[C@@H](C3)N4Cc3cccnc3)n2)n[nH]1 [Example 1-47] | A (A represents a pEC50 value ≥7.5 (EC50≤32 nM)) | A (A represents a pEC50 value ≥7.5 (EC50≤32 nM))
3 | Cc1cc(Nc2cc3ncccc3c(N[C@@H]3C[C@H]4CCC[C@@H](C3)N4C(=O)c3ccccc3)n2)n[nH]1 [Example 2-25] | A (A represents a pEC50 value ≥7.5 (EC50≤32 nM)) | A (A represents a pEC50 value ≥7.5 (EC50≤32 nM))
4 | Cc1cc(Nc2cc3ncccc3c(N[C@@H]3C[C@H]4CC[C@@H](C3)N4CC(C)C#N)n2)n[nH]1 (stereo partly drawn) [Example 1-23] | A (A represents a pEC50 value ≥7.5 (EC50≤32 nM)) | A (A represents a pEC50 value ≥7.5 (EC50≤32 nM))
5 | Cc1cnc2cc(Nc3cc(C)[nH]n3)nc(N[C@@H]3C[C@H]4CCC[C@@H](C3)N4S(=O)(=O)N3CC(C#N)C3)c2c1 [Example 6-9] | A (A represents a pEC50 value ≥7.5 (EC50≤32 nM)) | A (A represents a pEC50 value ≥7.5 (EC50≤32 nM))
6 | COc1ccc2c(N[C@@H]3C[C@H]4CC[C@@H](C3)N4CC(C)C)nc(Nc3cc(C)[nH]n3)cc2n1 [Example 5-4] | A (A represents a pEC50 value ≥7.5 (EC50≤32 nM)) | A (A represents a pEC50 value ≥7.5 (EC50≤32 nM))
7 | COc1cnc2cc(Nc3cc(C)[nH]n3)nc(N[C@@H]3C[C@H]4CCC[C@@H](C3)N4S(C)(=O)=O)c2c1 [Example 6-29] | A (A represents a pEC50 value ≥7.5 (EC50≤32 nM)) | A (A represents a pEC50 value ≥7.5 (EC50≤32 nM))
8 | Cc1cc(Nc2nc(N[C@@H]3C[C@H]4CC[C@@H](C3)N4S(C)(=O)=O)c3cccnc3c2F)n[nH]1 [Example 8-2] | C (C represents a pEC50 value <6.7 (EC50>200 nM)) | A (A represents a pEC50 value ≥7.5 (EC50≤32 nM))
9 | Cc1cc(Nc2cc3ncccc3c(N[C@@H]3C[C@H]4CCC[C@@H](C3)N4S(=O)(=O)N3CCC3)n2)n[nH]1 [Example 4-29] | A (A represents a pEC50 value ≥7.5 (EC50≤32 nM)) | A (A represents a pEC50 value ≥7.5 (EC50≤32 nM))
10 | Cc1cc(Nc2cc3ncccc3c(N[C@@H]3C[C@H]4CCC[C@@H](C3)N4CC(C)C)n2)n[nH]1 [Example 1-43] | A (A represents a pEC50 value ≥7.5 (EC50≤32 nM)) | A (A represents a pEC50 value ≥7.5 (EC50≤32 nM))
11 | COc1cnc2cc(Nc3cc(C)[nH]n3)nc(N[C@@H]3C[C@H]4CCC[C@@H](C3)N4CCC#N)c2c1 [Example 6-31] | A (A represents a pEC50 value ≥7.5 (EC50≤32 nM)) | A (A represents a pEC50 value ≥7.5 (EC50≤32 nM))
12 | Cc1cnc2cc(Nc3cc(C)[nH]n3)nc(N[C@@H]3C[C@H]4CCC[C@@H](C3)N4CCC#N)c2c1 [Example 6-6] | A (A represents a pEC50 value ≥7.5 (EC50≤32 nM)) | A (A represents a pEC50 value ≥7.5 (EC50≤32 nM))
13 | Cc1cc(Nc2cc3nc(CN4CCOCC4)ccc3c(N[C@@H]3C[C@H]4CCC[C@@H](C3)N4S(=O)(=O)c3cccnc3)n2)n[nH]1 [Example 5-27] | A (A represents a pEC50 value ≥7.5 (EC50≤32 nM)) | A (A represents a pEC50 value ≥7.5 (EC50≤32 nM))
14 | Cc1cc(Nc2cc3ncccc3c(N[C@@H]3C[C@H]4CCC[C@@H](C3)N4S(=O)(=O)N3CCCC3)n2)n[nH]1 [Example 4-27] | A (A represents a pEC50 value ≥7.5 (EC50≤32 nM)) | A (A represents a pEC50 value ≥7.5 (EC50≤32 nM))
15 | Cc1cc(Nc2cc3ncccc3c(N[C@@H]3C[C@H]4CCC[C@@H](C3)N4CCC#N)n2)n[nH]1 [Example 1-31] | A (A represents a pEC50 value ≥7.5 (EC50≤32 nM)) | A (A represents a pEC50 value ≥7.5 (EC50≤32 nM))
